From ChEMBL document CHEMBL5518183, “Broad-spectrum antiviral strategy: Host-targeting antivirals against emerging and re-emerging viruses” (Eur J Med Chem, 2024) come the findings set out here.

The subject of experiment [1] is Human immunodeficiency virus 1. Nature of the experiment: Antiviral activity against HIV-1 infected in human MT4 cells assessed as reduction in virus induced cytopathic effect incubated for 5 days by Cell Titer Glo luminescent assay. The format is functional, organism-based. The conditions noted are these: Human immunodeficiency virus 1, MT4, 120 h. Background: Protection from cytopathic effect is a common read-out in antiviral testing.

A further experiment deals with Enterovirus A71. Nature of the experiment: Antiviral activity against human EV71 infected in HEK293 cells assessed as reduction in viral replication at MOI of 1 incubated for 48 hrs by luciferase assay. The format is functional, organism-based. The conditions noted are these: Enterovirus A, HEK293, 48 h.
Experiment [2] addresses Virion infectivity factor (Human immunodeficiency virus type 1 group M subtype B (isolate NY5)(HIV-1), UniProt P12504). Put plainly: Inhibition of HIV1 Vif. The arrangement: species or system Human immunodeficiency virus 1.
The test system of the next experiment is Monkeypox virus. Nature of the experiment: Antiviral activity against Monkeypox virus V79-1-005 infected in Vero cells assessed as reduction in viral replication measured after 4 days by colorimetric assay. It counts as functional, organism-based. The conditions noted are these: V79-1-005, Vero, 96 h.
For another experiment, the system named is Caco-2. Nature of the experiment: Cytotoxicity against human Caco-2 cells assessed as reduction in cell growth measured fpr 48 hrs by MTT assay. It counts as functional.
For experiment [3], the system named is SARS-CoV-2. Nature of the experiment: Antiviral activity against SARS-CoV-2 infected in African green monkey Vero E6 cells assessed as inhibition of viral replication. The format is functional, organism-based. The note with it: Severe acute respiratory syndrome coronavirus 2, Vero C1008.
For experiment [4], the system named is SARS-CoV-2. Put plainly: Antiviral activity against SARS-CoV-2 infected in BALB/c mouse assessed as survival rate at 10 uM measured after 3 to 5 days. The format is functional, Severe acute respiratory syndrome coronavirus 2. The conditions noted are these: time 3-5 day.
Another experiment relates to Hepatitis B virus. Nature of the experiment: Antiviral activity against HBV genotype A infected in human HepG2 cells assessed as inhibition of viral replication. The format is functional, organism-based.
Experiment [5] has as its system SARS-CoV-2. Nature of the experiment: Antiviral activity against SARS-CoV-2 USA-WA1/2020 infected in human A549-ACE2 cells assessed as reduction in viral replication. The format is functional, organism-based. The conditions noted are these: Severe acute respiratory syndrome coronavirus 2, USA-WA1/2020, A549-ACE2.
A further experiment deals with West Nile virus. Put plainly: Antiviral activity against West Nile virus infected in African green monkey Vero cells assessed as inhibition of virus induced cytopathic effect incubated for 48 hrs by MTS assay. The format is functional, organism-based.
Another experiment relates to MT4. Nature of the experiment: Cytotoxicity against human MT4 cells assessed as reduction in cell viability incubated for 72 hrs by celltiter glo assay. It counts as functional. In general terms: ATP-based viability assays read luminescence as a measure of living cells.
In experiment [6] the test system is SARS-CoV-2. Put plainly: Antiviral activity against SARS-CoV-2 infected in […] Vero cells assessed as reduction in viral replication incubated for 24 hrs by Immunofluorescence assay. It counts as functional, organism-based. The note with it: Severe acute respiratory syndrome coronavirus 2, Vero.
The subject of experiment [7] is SARS-CoV-2. Nature of the experiment: Antiviral activity against SARS-CoV-2 infected in African green monkey Vero E6 cells assessed as inhibition of virus growth. The format is functional, organism-based. The note with it: Severe acute respiratory syndrome coronavirus 2, Vero C1008.
Experiment [8] has as its system Middle East respiratory syndrome-related coronavirus. Put plainly: Antiviral activity against MERS-CoV infected in human Calu-3 cells assessed as inhibition of viral growth. The format is functional, organism-based.
In experiment [9] the test system is SARS-CoV-2. Nature of the experiment: Antiviral activity against SARS-CoV-2 infected in African green monkey Vero cells assessed as reduction in viral replication incubated for 24 hrs by Immunofluorescence assay. The format is functional, organism-based. The note with it: Severe acute respiratory syndrome coronavirus 2, Vero.
The next experiment concerns Human coronavirus 229E. Put plainly: Antiviral activity against HCoV-229E infected in human MRC5 cells incubated for 3 days measured by crystal violet staining based plaque counting analysis. The note with it: MRC5, 72 h. It counts as functional, organism-based.
For experiment [10], the system named is Middle East respiratory syndrome-related coronavirus. Put plainly: Antiviral activity against MERS-CoV infected in human MRC5 cells assessed as reduction in viral replication measured after 48 hrs by qRT-PCR assay. The note with it: MRC5, 48 h. The format is functional, organism-based.
Experiment [11] relates to SARS-CoV-2. Nature of the experiment: Antiviral activity against SARS-CoV-2 infected in African green monkey Vero E6 cells assessed as reduction in viral replication incubated for 24 hrs by Immunofluorescence assay. The format is functional, organism-based. The note with it: Severe acute respiratory syndrome coronavirus 2, Vero C1008, 24 h.

Counter-ions that a name gives are not always drawn.

As usually defined, the EC50 is the concentration at which the effect is half-maximal. By IC50 is commonly meant the point on the concentration scale where inhibition reaches its midpoint. What is called CC50 is the concentration at which the toxic effect on the cells reaches its halfway point.

Virion infectivity factor, sequence (P12504 1-150 limits assumed): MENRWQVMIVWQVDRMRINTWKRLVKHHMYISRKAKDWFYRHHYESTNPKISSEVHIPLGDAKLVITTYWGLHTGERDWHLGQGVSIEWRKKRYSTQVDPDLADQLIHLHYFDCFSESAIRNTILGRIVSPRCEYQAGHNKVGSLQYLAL
Virion infectivity factor, sequence (P12504 151-192 limits assumed): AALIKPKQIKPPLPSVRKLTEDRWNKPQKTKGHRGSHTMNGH

On to `Oc1ccccc1/C=N/Nc1nc(Nc2ccc(F)cc2)nc(Nc2ccc(F)cc2)n1`, for which, in [1], the EC50 worked out at 2 nM. On to `O=C(CCNC(=O)c1ccc(OC(F)(F)F)cc1)C[C@H]1CCCc2ccccc21`, for which, in the experiment with Enterovirus A71, the IC50 turned out to be 66 nM.

`CCOC(=O)c1cc(C(=O)c2ccc3ccccc3c2)n2ccc(C(=O)c3ccncc3)cc12`: the IC50 in experiment [2] came to 11000 nM. Take `CC[C@H](CC#N)OC(=O)N[C@@H](C)c1cccc(NC(=O)Nc2ccc(-c3cnco3)c(OC)c2)c1` [AVN-944]: in the experiment with Monkeypox virus, the EC50 stood at 34.5 nM. As for `Cc1c(-c2ccc(-c3ccccc3F)cc2)nc2ccc(F)cc2c1C(=O)O` [BREQUINAR], the CC50 with Caco-2 amounted to 231000 nM. Moreover, in the experiment with SARS-CoV-2 [3], the EC50 is 123 nM. With `CN(C)C(=O)COC(=O)Cc1ccc(OC(=O)c2ccc(NC(=N)N)cc2)cc1.CS(=O)(=O)O` [CAMOSTAT MESILATE], in the experiment on SARS-CoV-2 [4], the Activity was determined as 60%.

For `C/C=C/C[C@@H](C)[C@@H](O)[C@H]1C(=O)N[C@@H](CC)C(=O)N(C)CC(=O)N(C)[C@@H](CC(C)C)C(=O)N[C@@H](C(C)C)C(=O)N(C)[C@@H](CC(C)C)C(=O)N[C@@H](C)C(=O)N[C@H](C)C(=O)N(C)[C@@H](CC(C)C)C(=O)N(C)[C@@H](CC(C)C)C(=O)N(C)[C@@H](C(C)C)C(=O)N1C` [CYCLOSPORINE], the IC50 in the experiment on Hepatitis B virus was found to be 5780 nM. As for `COc1ccc([C@H]2c3[nH]c4ccc(Cl)cc4c3CCN2C(=O)Oc2ccc(Cl)cc2)cc1` [EMVODODSTAT], the EC50 in the experiment on SARS-CoV-2 [5] stood at 2 nM.

Regarding `Cc1oncc1C(=O)Nc1ccc(C(F)(F)F)cc1` [LEFLUNOMIDE], the EC50 with West Nile virus was determined as 35000 nM. Also, the CC50 with MT4 was 178000 nM. `N=C(N)Nc1ccc(C(=O)Oc2ccc3cc(C(=N)N)ccc3c2)cc1` [NAFAMOSTAT MESYLATE]: the values for the EC50 (in the experiment with SARS-CoV-2 [6]; in the experiment with SARS-CoV-2 [7]; in experiment [8]) were 5 nM, 1.4 nM and 5.9 nM, respectively. With `CC[C@H](C)[C@H]1NC(=O)[C@@H](NC(=O)[C@@H](CC(C)C)N(C)C(=O)[C@@H]2CCCN2C(=O)C(C)=O)[C@@H](C)OC(=O)[C@H](Cc2ccc(OC)cc2)N(C)C(=O)[C@@H]2CCCN2C(=O)[C@H](CC(C)C)NC(=O)[C@@H](C)C(=O)[C@H](C(C)C)OC(=O)C[C@@H]1O` [PLITIDEPSIN], the EC50 with SARS-CoV-2 [9] came to 0.7 nM. Regarding `COC(=O)[C@H]1[C@@H](O)[C@@]2(O)c3c(OC)cc(O[C@@H]4O[C@@H]([C@H](O)CO)CO[C@H]4OC)cc3O[C@@]2(c2ccc(OC)cc2)[C@@H]1c1ccccc1` [SILVESTROL], the EC50 in the experiment with Human coronavirus 229E came out at 3 nM; in experiment [10] it was 1.3 nM. `COc1cc2c(c(OC)n1)[C@]1(O)[C@H](O)[C@H](CN(C)C)[C@@H](c3ccccc3)[C@]1(c1ccc(C#N)cc1)O2` [ZOTATIFIN]: the EC50 in the experiment with SARS-CoV-2 [11] was found to be 37 nM.
